# Experimental data reported in patent US20180215734A1, “PYRIMIDINE DERIVATIVES AS KINASE INHIBITORS AND THEIR THERAPEUTICAL APPLICATIONS” (NantBioScience, Inc., priority 2016, published 2018).
# How the values were obtained:
# [1] = Metabolic stability, mouse liver microsomes; type: in vitro ADME
# hERG = hERG (Homo sapiens, UniProt Q12809); test: Cardiovascular toxicity, hERG
# Excerpt: (§1) Table 9 discloses toxicity data for compound 19 from various toxicity tests well known to those of ordinary skill.
# FGFR1(V561M)(h) = FGFR1(V561M)(h) (Homo sapiens, UniProt P11362, V561M); test: Kinase assay, FGFR1(V561M)(h); type: biochemical
# Protocol: Kinase assay protocols well known to those of ordinary skill in the art were used. Specifically, the buffer composition was as follows: 20 mM MOPS, 1 mM EDTA, 0.01% Brij-35, 5% Glycerol, 0.1% β-mercaptoethanol, 1 mg/mL BSA. Test compounds were initially dissolved in DMSO at the desired concentration, then serially diluted to the kinase assay buffer. In a final reaction volume of 25 μL FGFR1(h) (5-10 mU) and KDR(h) (5-10 mU) are incubated with 8 mM MOPS pH 7.0, 0.2 mM EDTA, 200 μM LRRASLG (Kemptide), 10 mM magnesium acetate and [γ^33P-ATP]. The reaction was initiated by the addition of the MgATP mix. After incubation for 40 minutes at room temperature, the reaction was stopped by addition of 5 μL of a 3% phosphoric acid solution. Ten L of the reaction was then spotted onto a P30 filter mat and washed three times for 5 minutes in 50 mM phosphoric acid and once in methanol prior to drying and scintillation counting. Wells containing substrate but no kinase and wells containing a phosphopeptide control were used to set 0% and 100% phosphorylation value, respectively.
# Of all of the steps in developing a drug, the hardest is finding promising compounds. (See, e.g., Malo et al., “Statistical practice in high-throughput screening data analysis,” Nature Biotechnology, 2006, 24, 167-75.) Kinase inhibitors often also have an anti-proliferative effect. […]
# TG1a Human AML Xenograft = test: Antitumor efficacy on TG1a human AML xenograft; type: in vivo, mouse
# Protocol: In this Example the antitumor activity of compounds 14, 17, 19, 45, and 48 of the current invention are tested using an art-recognized xenograft model of AML. (“T/C” refers to the ratio of the tumor's size in treated animals versus the tumor size in control untreated animals. “BWC” refers to “body weight change”).
# [2] = Metabolic stability, rat liver microsomes; type: in vitro ADME
# CYP450 2C9 = CYP450 2C9 (Homo sapiens, UniProt P11712); test: CYP450 inhibition, 2C9; type: in vitro ADME
# Excerpt: as §1
# ABL(h) = ABL(h) (Homo sapiens, UniProt P00519); test: Kinase assay, ABL(h); type: biochemical
# FGFR3 = molecular target: T1, FGFR3 (Homo sapiens, UniProt P22607); test: BaF3 cells engineered for expression of FGFR3; type: cell-based; conditions: read-out: IC5o(nM) FGFR3
# T1 construct: expressed in transfected cells; host or cells: BaF3
# Excerpt: In FIG. 1 these kinases are from the fibroblast growth factor receptor class of kinases (FGFR1-FGFR4). Compound 19 kinase inhibitory activity FGFR1-FGFR4 are also depicted in Table 5.
# IGF-1R(h) = IGF-1R(h) (Homo sapiens, UniProt P08069); test: Kinase assay, IGF-1R(h); type: biochemical
# CYP450 2D6 = CYP450 2D6 (Homo sapiens, UniProt P10635); test: CYP450 inhibition, 2D6; type: in vitro ADME
# Excerpt: as §1
# CYP450 1A2 = CYP450 1A2 (Homo sapiens, UniProt P05177); test: CYP450 inhibition, 1A2; type: in vitro ADME
# Excerpt: as §1
# FGFR2(h) = FGFR2(h) (Homo sapiens, UniProt P21802); test: Kinase assay, FGFR2(h); type: biochemical
# Lck(h) = Lck(h) (Homo sapiens, UniProt P06239); test: Kinase assay, Lck(h); type: biochemical
# FGFR2(N549H)(h) = FGFR2(N549H)(h) (Homo sapiens, UniProt P21802, N549H); test: Kinase assay, FGFR2(N549H)(h); type: biochemical
# nude mouse model of AML = test: Nude mouse model of AML (FIG. 2, FIG. 3); type: in vivo
# CYP450 2C8 = CYP450 2C8 (Homo sapiens, UniProt P10632); test: CYP450 inhibition, 2C8; type: in vitro ADME
# Excerpt: as §1
# SNU16 = test: Inhibition of proliferation (CellTiterblue, 72 hr), SNU16; type: cell-based; conditions: Homo sapiens, SNU-16, 72 h
# Protocol: A number of studies were performed to analyze the consequences of tyrosine kinase inhibition in cell lines. To do this, 1000 cells are seeded in 27 μl/well in 384-well microplates, which are then placed in a humidified CO2 incubator at 37° C. overnight. The next day, 3 μl/well of 10× concentrated drug is added and the plates are returned to the incubator for 72 hr. After 72 hr incubation, plates are removed and 6 μl/well CellTiterblue (Promega) viability reagent is added. Plates are returned to the incubator for 3 hrs, after which fluorescence measurements are read on the Victor X3 plate reader (Perkin Elmer). Data are analyzed using Excel (Microsoft), and GI50 values are determined using Prism (Graphpad).
# [3] = Cellular toxicity, primary human hepatocyte; type: cell-based; conditions: primary hepatocytes
# Excerpt: as §1
# [4] = Pharmacokinetic profile in rats; type: in vivo; conditions: Rat
# Excerpt: Compound 19's pharmacokinetic profile is consistent with Compound 19 being used as a therapeutic agent.
# cSRC(h) = cSRC(h) (Homo sapiens, UniProt P12931); test: Kinase assay, cSRC(h); type: biochemical
# Sequence of cSRC(h) (P12931 whole entry): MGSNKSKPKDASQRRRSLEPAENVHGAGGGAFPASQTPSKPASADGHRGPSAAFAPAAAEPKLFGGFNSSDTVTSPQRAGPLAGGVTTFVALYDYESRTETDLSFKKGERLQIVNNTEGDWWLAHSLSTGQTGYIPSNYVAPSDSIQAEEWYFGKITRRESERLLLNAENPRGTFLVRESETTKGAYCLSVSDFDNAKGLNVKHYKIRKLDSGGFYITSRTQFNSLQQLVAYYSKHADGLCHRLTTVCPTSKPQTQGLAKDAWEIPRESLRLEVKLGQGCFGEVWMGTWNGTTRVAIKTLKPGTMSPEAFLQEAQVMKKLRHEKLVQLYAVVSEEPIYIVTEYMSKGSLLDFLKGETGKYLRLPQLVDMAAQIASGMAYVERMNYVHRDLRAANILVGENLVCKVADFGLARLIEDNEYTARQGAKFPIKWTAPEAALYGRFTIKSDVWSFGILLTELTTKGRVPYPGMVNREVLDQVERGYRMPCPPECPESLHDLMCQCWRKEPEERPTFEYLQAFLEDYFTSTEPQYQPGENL
# Sequence of CYP450 2C9 (P11712 whole entry): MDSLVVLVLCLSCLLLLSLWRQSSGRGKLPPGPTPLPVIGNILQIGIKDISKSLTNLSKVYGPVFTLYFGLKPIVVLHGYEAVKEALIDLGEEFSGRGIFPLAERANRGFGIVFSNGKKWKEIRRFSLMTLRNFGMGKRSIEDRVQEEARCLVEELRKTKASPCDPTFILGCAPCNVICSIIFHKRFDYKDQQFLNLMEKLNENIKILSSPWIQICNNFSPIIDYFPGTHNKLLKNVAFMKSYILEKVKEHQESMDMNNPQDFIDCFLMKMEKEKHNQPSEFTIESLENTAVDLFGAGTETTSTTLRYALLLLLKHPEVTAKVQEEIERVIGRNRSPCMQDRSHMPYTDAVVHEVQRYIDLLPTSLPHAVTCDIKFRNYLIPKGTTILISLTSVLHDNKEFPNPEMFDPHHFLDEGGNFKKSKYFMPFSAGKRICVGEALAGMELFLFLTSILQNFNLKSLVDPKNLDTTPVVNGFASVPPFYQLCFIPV
# Sequence of hERG (Q12809 whole entry): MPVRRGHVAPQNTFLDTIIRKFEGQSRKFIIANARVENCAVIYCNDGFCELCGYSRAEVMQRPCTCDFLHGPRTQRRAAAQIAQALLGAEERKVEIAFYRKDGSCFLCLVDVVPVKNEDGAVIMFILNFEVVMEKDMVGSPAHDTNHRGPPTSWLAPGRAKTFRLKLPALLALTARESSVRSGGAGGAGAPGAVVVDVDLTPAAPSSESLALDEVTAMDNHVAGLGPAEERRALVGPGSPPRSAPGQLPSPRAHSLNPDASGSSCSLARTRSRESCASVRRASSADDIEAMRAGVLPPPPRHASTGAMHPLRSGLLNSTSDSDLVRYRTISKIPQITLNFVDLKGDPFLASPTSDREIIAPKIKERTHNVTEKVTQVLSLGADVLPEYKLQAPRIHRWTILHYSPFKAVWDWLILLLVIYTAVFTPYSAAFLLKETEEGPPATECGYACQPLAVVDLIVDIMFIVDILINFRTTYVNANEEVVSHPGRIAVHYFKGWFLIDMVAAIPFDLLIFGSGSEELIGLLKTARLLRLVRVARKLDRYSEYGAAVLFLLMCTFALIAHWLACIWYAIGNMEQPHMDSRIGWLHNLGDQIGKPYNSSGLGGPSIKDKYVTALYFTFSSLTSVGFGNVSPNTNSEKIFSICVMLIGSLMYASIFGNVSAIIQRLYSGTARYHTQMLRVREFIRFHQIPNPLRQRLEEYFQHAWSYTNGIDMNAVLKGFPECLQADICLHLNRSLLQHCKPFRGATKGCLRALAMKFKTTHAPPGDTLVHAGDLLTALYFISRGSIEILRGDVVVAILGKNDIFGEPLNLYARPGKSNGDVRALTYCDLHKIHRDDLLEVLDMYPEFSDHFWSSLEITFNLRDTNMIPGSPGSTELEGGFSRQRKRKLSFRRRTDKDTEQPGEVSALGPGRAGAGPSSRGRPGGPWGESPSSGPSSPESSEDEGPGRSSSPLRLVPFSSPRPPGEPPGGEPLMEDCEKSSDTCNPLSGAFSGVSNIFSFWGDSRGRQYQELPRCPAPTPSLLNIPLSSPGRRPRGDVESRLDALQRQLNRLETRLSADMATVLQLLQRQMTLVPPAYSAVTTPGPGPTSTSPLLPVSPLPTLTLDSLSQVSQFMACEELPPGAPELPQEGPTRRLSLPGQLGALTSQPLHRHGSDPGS
# Sequence of CYP450 1A2 (P05177 whole entry): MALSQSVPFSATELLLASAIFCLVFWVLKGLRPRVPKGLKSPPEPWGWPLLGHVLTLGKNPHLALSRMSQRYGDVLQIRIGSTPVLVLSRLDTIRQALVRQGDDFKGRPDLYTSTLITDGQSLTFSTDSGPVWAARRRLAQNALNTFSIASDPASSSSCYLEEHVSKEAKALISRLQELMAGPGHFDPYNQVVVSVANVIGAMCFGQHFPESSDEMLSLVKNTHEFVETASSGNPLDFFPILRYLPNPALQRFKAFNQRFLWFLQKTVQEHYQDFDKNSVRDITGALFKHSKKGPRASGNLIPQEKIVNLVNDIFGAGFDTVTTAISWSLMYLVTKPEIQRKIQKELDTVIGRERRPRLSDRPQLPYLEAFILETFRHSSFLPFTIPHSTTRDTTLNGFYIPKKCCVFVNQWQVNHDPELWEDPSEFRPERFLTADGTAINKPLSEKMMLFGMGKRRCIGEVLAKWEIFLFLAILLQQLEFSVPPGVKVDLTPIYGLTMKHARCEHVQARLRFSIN
# T1 sequence (P22607 23-806, species assumed): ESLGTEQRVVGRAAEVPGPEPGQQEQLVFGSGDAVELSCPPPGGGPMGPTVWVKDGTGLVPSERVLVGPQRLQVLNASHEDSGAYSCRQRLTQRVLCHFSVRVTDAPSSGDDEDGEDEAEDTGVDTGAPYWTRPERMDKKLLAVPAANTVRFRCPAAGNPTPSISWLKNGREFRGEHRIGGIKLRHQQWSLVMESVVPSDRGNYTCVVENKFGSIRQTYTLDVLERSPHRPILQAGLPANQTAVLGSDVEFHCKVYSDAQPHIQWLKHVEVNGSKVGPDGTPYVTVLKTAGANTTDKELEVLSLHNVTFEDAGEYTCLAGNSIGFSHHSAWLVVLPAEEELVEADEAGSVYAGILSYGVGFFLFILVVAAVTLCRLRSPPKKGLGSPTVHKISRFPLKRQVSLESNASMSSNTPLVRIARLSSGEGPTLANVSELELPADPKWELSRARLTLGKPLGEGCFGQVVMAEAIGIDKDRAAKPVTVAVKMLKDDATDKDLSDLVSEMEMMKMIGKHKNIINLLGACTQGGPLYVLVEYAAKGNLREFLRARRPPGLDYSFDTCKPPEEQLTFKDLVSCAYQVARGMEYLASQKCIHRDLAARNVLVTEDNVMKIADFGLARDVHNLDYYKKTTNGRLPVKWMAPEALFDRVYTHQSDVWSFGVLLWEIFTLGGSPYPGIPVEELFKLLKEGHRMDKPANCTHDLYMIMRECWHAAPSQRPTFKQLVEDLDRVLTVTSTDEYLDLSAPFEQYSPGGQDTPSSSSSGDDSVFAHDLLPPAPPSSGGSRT
# Sequence of CYP450 2C8 (P10632 whole entry): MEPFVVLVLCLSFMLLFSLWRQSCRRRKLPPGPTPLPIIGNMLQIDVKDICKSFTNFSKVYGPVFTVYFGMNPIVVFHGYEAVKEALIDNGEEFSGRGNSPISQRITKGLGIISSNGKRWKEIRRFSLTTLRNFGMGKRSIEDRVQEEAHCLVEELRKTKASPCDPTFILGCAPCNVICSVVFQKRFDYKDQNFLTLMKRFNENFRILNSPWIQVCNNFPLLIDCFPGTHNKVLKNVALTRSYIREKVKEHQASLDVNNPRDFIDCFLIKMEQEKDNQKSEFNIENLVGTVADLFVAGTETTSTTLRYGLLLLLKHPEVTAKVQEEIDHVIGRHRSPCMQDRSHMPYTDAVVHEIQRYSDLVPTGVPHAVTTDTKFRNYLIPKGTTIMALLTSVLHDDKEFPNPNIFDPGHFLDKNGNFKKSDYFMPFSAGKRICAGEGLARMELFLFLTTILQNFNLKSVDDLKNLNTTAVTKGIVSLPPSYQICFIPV
# Sequence of Lck(h) (P06239 whole entry): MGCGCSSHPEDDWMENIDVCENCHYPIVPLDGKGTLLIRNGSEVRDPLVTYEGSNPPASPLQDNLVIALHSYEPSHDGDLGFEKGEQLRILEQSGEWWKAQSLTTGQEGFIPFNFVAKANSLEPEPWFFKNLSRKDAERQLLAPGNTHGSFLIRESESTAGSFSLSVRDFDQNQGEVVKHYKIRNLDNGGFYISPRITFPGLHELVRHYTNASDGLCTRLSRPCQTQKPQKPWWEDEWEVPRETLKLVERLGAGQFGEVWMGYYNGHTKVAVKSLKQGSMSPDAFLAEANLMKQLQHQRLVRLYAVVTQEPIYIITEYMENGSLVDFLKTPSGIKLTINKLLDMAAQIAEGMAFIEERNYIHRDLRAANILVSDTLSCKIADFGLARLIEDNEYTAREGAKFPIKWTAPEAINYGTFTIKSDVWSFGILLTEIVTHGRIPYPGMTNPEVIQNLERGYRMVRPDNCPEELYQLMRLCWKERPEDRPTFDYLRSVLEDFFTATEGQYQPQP
# Sequence of CYP450 2D6 (P10635 whole entry): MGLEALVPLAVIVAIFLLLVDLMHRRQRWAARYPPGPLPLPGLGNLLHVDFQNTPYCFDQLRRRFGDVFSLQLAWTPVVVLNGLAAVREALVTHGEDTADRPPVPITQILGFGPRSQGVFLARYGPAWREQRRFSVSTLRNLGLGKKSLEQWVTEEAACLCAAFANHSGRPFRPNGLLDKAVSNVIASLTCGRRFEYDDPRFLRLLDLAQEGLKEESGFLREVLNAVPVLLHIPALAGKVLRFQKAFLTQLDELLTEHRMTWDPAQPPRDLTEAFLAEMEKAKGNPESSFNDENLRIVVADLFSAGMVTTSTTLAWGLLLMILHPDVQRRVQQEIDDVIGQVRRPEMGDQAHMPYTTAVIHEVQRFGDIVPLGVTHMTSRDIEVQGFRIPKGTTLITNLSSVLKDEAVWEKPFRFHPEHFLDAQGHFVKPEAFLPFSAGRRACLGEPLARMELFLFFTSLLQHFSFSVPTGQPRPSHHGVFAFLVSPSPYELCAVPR
smiles,measurement,setting,value
Cc1cc2c(F)c(Oc3ncnc(Nc4ccc(N5C[C@@H](C)N[C@@H](C)C5)cc4)c3C#N)cc(F)c2[nH]1 [Compound 19],half-life,[1],> 1 h
same,IC50,hERG,> 30000 nM
same,IC50,FGFR1(V561M)(h),134 nM
same,BWC (%),"TG1a Human AML Xenograft; 5 mg/kg, Qdx10, IP",−4.1%
same,T/C (%) (day14),"TG1a Human AML Xenograft; 5 mg/kg, Qdx10, IP",−69.7%
same,BWC (%),"TG1a Human AML Xenograft; 10 mg/kg, Qdx10, IP",−6.3%
same,T/C (%) (day14),"TG1a Human AML Xenograft; 10 mg/kg, Qdx10, IP",−83.7%
same,BWC (%) (d7),"TG1a Human AML Xenograft; 20 mg/kg, Qdx10, IP, d7",−26.2%
same,T/C (%) (day7),"TG1a Human AML Xenograft; 20 mg/kg, Qdx10, IP, day7",−68.7%
same,Weight loss in dose-response study (FIGS. 4 and 5),"TG1a Human AML Xenograft; highest dose, 20 mg/kg",significant weight loss
same,half-life,[2],> 1 h
same,IC50,CYP450 2C9,32900 nM
same,IC50,ABL(h),> 1000 nM
same,IC50,FGFR3,32.6 nM
same,IC50,IGF-1R(h),> 1000 nM
same,IC50,CYP450 2D6,> 100000 nM
same,IC50,CYP450 1A2,72000 nM
same,IC50,FGFR2(h),11 nM
same,IC50,Lck(h),> 1000 nM
same,IC50,FGFR2(N549H)(h),7 nM
same,"Antitumor activity (tumor cells expansion), FIG. 2",nude mouse model of AML; both dosages tested,near complete suppression of the tumor cells expansion
same,"Animal weight as surrogate marker for toxicity, FIG. 3",nude mouse model of AML; vs control,no difference between the control and compound 19 treated animals
same,IC50,CYP450 2C8,10600 nM
same,GI50,SNU16,12 nM
same,CC50,[3],20000 nM
same,Oral Bioavailability (% F),[4]; PO 5 mg/Kg,76 % F
same,clearance,"[4]; in vivo, IV 1 mg/Kg",17.6 mL/min/kg
same,half-life,"[4]; in vivo, IV 1 mg/Kg, read-out: Terminal Half Life (converted)",6.81 h
same,Vd,"[4]; in vivo, IV 1 mg/Kg, read-out: Vz",9.54 L/kg
same,IC50,cSRC(h),> 1000 nM
